The source made the active and inactive calls.
Tests used:
P388/ADR = experiment: cells; format: functional; details: Mus musculus
SN12K1 = experiment: cells; format: functional; details: Homo sapiens
P388 = experiment: cells; format: functional; details: Mus musculus
[1] = target: T1, Carboxy-terminal domain RNA polymerase II polypeptide A small phosphatase 1 (Homo sapiens, UniProt Q9GZU7); experiment: inhibitors of CTDSP1, concentration-response testing, biochemical assay, absorbance-based, actives from ultra-high-throughput screening (AID 540297); format: functional
T1 sequence (Q9GZU7 whole entry): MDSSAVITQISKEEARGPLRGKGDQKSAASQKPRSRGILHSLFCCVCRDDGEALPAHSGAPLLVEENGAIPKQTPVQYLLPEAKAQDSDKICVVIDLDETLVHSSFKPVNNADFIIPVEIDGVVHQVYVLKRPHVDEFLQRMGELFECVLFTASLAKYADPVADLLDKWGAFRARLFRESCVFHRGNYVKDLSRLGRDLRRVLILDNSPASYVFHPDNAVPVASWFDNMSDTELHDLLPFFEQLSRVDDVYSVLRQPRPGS

[2] = target: T2, Calpain-2 catalytic subunit (Sus scrofa, UniProt P43367); experiment: pig calpain II inhibitor potency, dose response, biochemical, fluorogenic peptide substrate (AID 1420); format: functional
T2 sequence (P43367 whole entry): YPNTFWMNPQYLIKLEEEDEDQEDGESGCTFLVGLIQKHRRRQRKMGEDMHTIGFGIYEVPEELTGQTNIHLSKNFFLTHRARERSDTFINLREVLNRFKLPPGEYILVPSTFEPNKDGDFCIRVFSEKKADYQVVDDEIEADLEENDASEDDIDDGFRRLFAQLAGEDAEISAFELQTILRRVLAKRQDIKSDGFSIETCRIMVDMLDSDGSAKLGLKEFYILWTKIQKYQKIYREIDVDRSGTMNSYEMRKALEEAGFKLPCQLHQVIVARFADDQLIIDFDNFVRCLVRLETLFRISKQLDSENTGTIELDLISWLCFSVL

H9c2 = experiment: cells; format: functional, cell-based; details: Rattus norvegicus, H9c2, Myocardium
[3] = microbe, parasite or virus in culture; format: functional; details: Mycobacterium tuberculosis
[4] = growth suppression of PTEN-null colon cells, dose response, cell-based, HCT116 PTEN knockout (AID 1047); format: functional;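 further: HCT116 colon tumor cells with PTEN knocked out; cells exposed to compound for 60 hours before readout; potency for loss of cell viability measured by luminescence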
[5] = growth suppression of beta-catenin-knockout colon cells, dose response, cell-based, HCT116, human colon tumor (AID 1045); format: functional;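 further: HCT116 colon tumor cells with beta catenin knocked out; cells exposed to compound for 60 hours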
[6] = P. falciparum Dd2 growth inhibitors, dose response, SYBR Green, cherry-picked samples (AID 1159567); format: functional, cell-based
[7] = HepG2 cell cytotoxicity, dose response, cytotoxicity control, cherry-picked samples (AID 1159577); format: functional, cell-based
[8] = inhibitors of HIV Env-driven cell fusion, dose response, cherry-pick (AID 652057); format: functional, cell-based
[9] = inhibitors of clade B AD8 Env fusion, dose response, cell-based, cherry-pick (AID 652062); format: functional;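 further: luciferase signal from cell-cell fusion driven by HIV-1 clade B AD8 Env; potency is for inhibitors of fusion seen as a drop in luminescence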
[10] = target: T3, Ubiquitin-conjugating enzyme E2 N (Homo sapiens, UniProt P61088); format: functional;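 further: Dose-response confirmation in a TR-FRET assay detecting UBC13-driven polyubiquitin chain formation, inhibition measured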
T3 sequence (P61088 whole entry): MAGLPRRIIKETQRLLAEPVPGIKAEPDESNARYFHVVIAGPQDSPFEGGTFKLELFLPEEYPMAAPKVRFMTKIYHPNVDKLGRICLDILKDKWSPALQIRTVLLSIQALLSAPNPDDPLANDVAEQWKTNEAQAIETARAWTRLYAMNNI

[11] = Luminescence Cell-Based Dose Retest to Confirm Inhibitors of Cancer Stem Cells. [Related pubchem assays (depositor defined):AID2717, AID2721]; format: functional; details: Homo sapiens
[12] = inhibitors of intracellular T. cruzi replication, confirmation, NIH3T3 host cells, beta-gal luminescence (AID 2044); format: functional, cell-based;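 further: intracellular parasites grown in NIH/3T3 mouse fibroblasts as host cells; luminescent beta-galactosidase reporter signal from transgenic T. cruzi replicating inside host cells; inhibitors lower the luminescence signal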
[13] = cytotoxicity toward NIH3T3 fibroblasts, dose response, counter-screen, cell-based, ATP luminescence, mouse fibroblasts (AID 2010); format: functional;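 further: cells exposed to compound for about 90 hours before reading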
[14] = target: Voltage-dependent T-type calcium channel subunit alpha-1H (Homo sapiens, UniProt O95180); format: functional;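 further: channel activity triggered by adding a high calcium stimulation buffer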
Paired box protein Pax-8 = Paired box protein Pax-8 (Homo sapiens, UniProt Q06710); experiment: inhibitors of PAX8-driven TPO luciferase reporter, dose response, RMG-I cells, cherry-pick (AID 687027); format: functional, cell-based;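 further: luciferase reporter driven by Pax8 target thyroperoxidase promoter measured by SteadyGlo luminescence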
[15] = target: T4, Microphthalmia-associated transcription factor (Homo sapiens, UniProt O75030); experiment: TRPM1 promoter luciferase signal decrease, dose response, MITF inhibitor project, cell-based, SK-MEL-5, cherry-picked, set 3 (AID 493073); format: functional
T4 sequence (O75030 whole entry): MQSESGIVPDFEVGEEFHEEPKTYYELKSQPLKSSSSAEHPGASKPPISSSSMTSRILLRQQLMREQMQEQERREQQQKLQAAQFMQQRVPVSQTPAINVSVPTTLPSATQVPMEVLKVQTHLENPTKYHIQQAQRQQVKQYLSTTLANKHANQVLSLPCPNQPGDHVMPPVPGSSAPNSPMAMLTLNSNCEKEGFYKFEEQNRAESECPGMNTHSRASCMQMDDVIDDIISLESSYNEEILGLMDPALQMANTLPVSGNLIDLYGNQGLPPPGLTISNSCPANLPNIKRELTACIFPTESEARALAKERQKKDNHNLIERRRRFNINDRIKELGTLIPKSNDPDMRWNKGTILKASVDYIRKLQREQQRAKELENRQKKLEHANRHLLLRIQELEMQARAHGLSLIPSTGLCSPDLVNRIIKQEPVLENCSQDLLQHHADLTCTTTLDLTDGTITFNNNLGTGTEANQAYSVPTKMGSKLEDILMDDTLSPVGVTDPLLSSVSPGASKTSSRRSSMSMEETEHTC

Voltage-dependent T-type calcium channel subunit alpha-1H, sequence (O95180 whole entry): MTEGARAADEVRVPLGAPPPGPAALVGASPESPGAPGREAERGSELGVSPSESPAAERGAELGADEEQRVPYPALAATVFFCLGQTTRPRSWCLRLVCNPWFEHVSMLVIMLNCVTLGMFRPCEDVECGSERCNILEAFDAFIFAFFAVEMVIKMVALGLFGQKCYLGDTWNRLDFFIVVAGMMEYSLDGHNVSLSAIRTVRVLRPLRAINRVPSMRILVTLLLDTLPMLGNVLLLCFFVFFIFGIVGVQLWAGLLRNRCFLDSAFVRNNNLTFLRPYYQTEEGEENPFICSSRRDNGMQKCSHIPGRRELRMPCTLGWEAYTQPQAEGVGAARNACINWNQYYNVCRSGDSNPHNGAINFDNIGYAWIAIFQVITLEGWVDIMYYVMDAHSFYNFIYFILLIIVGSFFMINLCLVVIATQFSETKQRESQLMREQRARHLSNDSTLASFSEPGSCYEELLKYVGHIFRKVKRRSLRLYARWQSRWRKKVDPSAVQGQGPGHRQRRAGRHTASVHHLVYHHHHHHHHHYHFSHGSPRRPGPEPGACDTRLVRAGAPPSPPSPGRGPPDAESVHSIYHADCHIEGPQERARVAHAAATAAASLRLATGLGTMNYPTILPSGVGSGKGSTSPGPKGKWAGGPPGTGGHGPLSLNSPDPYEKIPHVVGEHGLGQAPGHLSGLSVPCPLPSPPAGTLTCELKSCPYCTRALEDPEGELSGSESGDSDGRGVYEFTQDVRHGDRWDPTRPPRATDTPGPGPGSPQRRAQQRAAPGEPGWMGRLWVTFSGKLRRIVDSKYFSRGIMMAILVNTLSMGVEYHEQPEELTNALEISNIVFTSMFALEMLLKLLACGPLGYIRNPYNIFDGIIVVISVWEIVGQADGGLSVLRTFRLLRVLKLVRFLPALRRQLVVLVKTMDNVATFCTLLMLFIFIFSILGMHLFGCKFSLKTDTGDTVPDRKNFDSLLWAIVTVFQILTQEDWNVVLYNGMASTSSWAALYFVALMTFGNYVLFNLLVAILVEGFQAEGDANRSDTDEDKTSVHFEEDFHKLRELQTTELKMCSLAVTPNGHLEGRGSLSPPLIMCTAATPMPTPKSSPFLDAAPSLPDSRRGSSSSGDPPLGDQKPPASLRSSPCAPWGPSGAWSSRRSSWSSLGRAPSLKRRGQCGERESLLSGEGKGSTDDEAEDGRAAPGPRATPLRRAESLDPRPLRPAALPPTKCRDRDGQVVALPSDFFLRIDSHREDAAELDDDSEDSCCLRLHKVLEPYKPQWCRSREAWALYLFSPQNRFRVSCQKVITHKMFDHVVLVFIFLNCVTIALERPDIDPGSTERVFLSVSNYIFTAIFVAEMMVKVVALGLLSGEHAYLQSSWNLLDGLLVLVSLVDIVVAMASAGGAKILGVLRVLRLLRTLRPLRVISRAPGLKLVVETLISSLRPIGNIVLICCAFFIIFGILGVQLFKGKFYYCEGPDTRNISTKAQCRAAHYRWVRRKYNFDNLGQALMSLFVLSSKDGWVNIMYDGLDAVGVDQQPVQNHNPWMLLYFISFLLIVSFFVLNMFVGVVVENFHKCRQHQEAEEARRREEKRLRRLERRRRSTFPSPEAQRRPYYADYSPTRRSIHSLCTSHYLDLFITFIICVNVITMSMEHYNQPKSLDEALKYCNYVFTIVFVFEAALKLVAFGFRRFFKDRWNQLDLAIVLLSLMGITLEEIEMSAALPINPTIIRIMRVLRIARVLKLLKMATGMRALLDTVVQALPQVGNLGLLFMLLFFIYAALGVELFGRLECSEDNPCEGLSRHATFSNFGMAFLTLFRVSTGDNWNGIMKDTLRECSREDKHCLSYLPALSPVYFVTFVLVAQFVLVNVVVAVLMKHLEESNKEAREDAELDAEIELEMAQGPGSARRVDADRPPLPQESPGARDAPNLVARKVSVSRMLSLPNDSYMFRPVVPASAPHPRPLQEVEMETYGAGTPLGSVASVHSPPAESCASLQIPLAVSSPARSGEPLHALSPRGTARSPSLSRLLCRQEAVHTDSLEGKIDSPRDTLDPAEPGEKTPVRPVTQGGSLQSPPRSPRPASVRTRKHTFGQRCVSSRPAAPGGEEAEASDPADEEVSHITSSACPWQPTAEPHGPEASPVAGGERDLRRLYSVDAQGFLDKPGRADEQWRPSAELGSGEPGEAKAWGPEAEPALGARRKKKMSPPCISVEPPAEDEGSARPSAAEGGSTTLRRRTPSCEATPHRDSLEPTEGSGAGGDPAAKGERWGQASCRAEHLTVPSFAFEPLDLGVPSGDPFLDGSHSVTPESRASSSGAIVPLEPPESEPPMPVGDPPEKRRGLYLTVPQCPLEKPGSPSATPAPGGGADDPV
Paired box protein Pax-8, sequence (Q06710 whole entry): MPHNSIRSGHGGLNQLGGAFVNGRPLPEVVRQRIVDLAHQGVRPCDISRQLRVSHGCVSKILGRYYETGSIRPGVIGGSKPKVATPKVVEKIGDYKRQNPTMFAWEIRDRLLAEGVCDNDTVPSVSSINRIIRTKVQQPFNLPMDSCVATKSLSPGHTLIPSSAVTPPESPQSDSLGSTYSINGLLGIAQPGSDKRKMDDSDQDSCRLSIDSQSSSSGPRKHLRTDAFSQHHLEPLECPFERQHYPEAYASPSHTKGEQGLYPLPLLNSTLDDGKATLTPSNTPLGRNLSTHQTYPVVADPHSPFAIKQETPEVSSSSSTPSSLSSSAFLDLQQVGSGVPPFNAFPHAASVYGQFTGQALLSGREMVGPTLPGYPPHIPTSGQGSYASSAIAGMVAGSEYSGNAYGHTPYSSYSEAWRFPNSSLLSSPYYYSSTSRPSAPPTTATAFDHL

## Cc1ccc(C#CS(=O)(=O)C(F)(F)F)cc1
P388/ADR
  GI50: > 100 µM (inactive)
SN12K1
  GI50: > 100 µM (inactive)
P388
  GI50: 90.6 µM (inactive)

## O=C(NCc1ccco1)c1ccc2c(=O)n(Cc3ccco3)c(SCC(=O)N3CCCC3)nc2c1
[1]
  IC50: 6.12 µM (active)

## CC(C)COP(=O)(OCC(C)C)C(Nc1ccccc1)c1ccc2c(c1)OCO2 (stereo unspecified)
[2]
  IC50: 11.4 µM (not active)
H9c2
  IC50: > 79 µM (inactive)

## Cc1ccc(CCNC(=O)c2ccc3nc4ccccc4c(=O)n3c2)cc1
[1]
  IC50: 14.2 µM (active)

## COC(=O)c1[nH]c2cc(OC)ccc2c1NC(=O)CN1CCN(c2cccc(C)c2)C(C)C1 (stereo unspecified)
[3]
  CC50: 30.6 µM (active)

## O=C(/C=C/c1ccc(Br)cc1)c1ccco1
[4]
  EC50: 11.5 µM (active)
[5]
  EC50: 10.9 µM (active)

## COC1C(O)C(n2ncc3c(SC)nc(SC)nc32)OC1C(O)CO (stereo unspecified)
P388/ADR
  GI50: > 100 µM (inactive)
SN12K1
  GI50: > 37.2 µM (inactive)
P388
  GI50: 98.2 µM (inactive)

## CCOC(=O)c1c[nH]c2cc3c(cc2c1=O)CCS3(=O)=O.CCOC(=O)c1c[nH]c2ccc3c(c2c1=O)S(=O)(=O)CC3
P388/ADR
  GI50: > 100 µM (inactive)
SN12K1
  GI50: > 100 µM (inactive)
P388
  GI50: > 100 µM (inactive)

## Cc1ccccc1S(=O)(=O)N1CC(=O)N2[C@H](C1)[C@@H](c1ccc(C#Cc3ccccc3)cc1)[C@@H]2CO
[6]
  AC50: 3.52 µM (active)
[7]
  AC50: 15.8 µM (active)

## O=C1NC(=O)C(CCO)(c2ccccc2)C(=O)N1
SN12K1
  GI50: > 100 µM (inactive)
P388
  GI50: > 100 µM (inactive)

## Cc1cc(NS(=O)(=O)c2ccc(NC(=S)NC(=O)c3ccc(C(C)(C)C)cc3)cc2)no1
[2]
  IC50: 26.1 µM (not active)

## C[C@H](CO)N1C[C@H](C)[C@H](CN(C)S(=O)(=O)c2cccs2)Oc2ccc(NC(=O)Cc3ccccc3)cc2CC1=O
[8]
  AC50: < 0.26 µM (active)
[9]
  AC50: < 0.26 µM (active)

## COc1ccc(-c2nnc(SCC(=O)Nc3cc(F)ccc3C)o2)cc1
[10]
  IC50: > 20 µM (inactive)

## COc1ccc(Br)cc1/C=C(\C(=O)O)c1ccc(S(=O)(=O)N2CCCC2)s1
[1]
  IC50: 8.63 µM (active)

## Cc1ccc(C(NC(=O)N2CCOCC2)=C(Cl)Cl)cc1F
[4]
  EC50: 6.69 µM (active)
[5]
  EC50: 4.71 µM (active)

## CN(C)C(=O)c1cccc(-c2cccc(-c3nc(C(=O)NCc4ccccc4)cc4c3[C@@H](CCO)N([S@+]([O-])C(C)(C)C)C4)c2)c1
[6]
  AC50: 1.17 µM (active)
[7]
  AC50: 17.5 µM (active)

## CCc1ccc(-c2nc(CN3CCC(C(=O)N4CCN(c5ccccn5)CC4)CC3)c(C)o2)cc1
[4]
  EC50: 7.51 µM (active)
[5]
  EC50: 7.28 µM (active)

## CN1CCN(Cc2nc3ccccc3c(=O)n2Cc2nc(-c3ccc4ccccc4c3)cs2)CC1
[3]
  CC50: 6.44 µM (active)
[4]
  EC50: 4.11 µM (active)
[5]
  EC50: 4.02 µM (active)
[11]
  AC50: 4.28 µM (active)

## c1ccc2c(c1)NCc1cc3ccccc3nc1O2
P388/ADR
  GI50: 74.1 µM (inactive)
SN12K1
  GI50: > 100 µM (inactive)
P388
  GI50: > 100 µM (inactive)

## O=c1c2cc(NC(=S)NCCCN3CCC(Cc4ccccc4)CC3)ccc2nc2n1CCCCC2
[12]
  EC50: 2.09 µM (active)
[13]
  EC50: > 60 µM (not active)
[11]
  AC50: 9.58 µM (active)
[10]
  IC50: > 20 µM (inactive)

## CCOc1ccc(C2CC(c3cccc(OC)c3OC)n3nnnc3N2)cc1Cl (stereo unspecified)
[14]
  EC50: 2.66 µM (active)

## CC(=O)C(C[N+]1(C)CCCCC1)=NO
[1]
  IC50: 3.4 µM (active)

## Nc1c(C(=O)C2CC2)sc2nc(-c3ccccc3)cc(C(F)(F)F)c12
[14]
  EC50: 2.51 µM (active)

## COc1ccccc1N1CCN(C(=O)C(Sc2ccccc2)c2ccccc2)CC1 (stereo unspecified)
[14]
  EC50: 4.93 µM (active)

## Cc1ccc(-c2csc(NC(=O)c3cccc(N4C(=O)CCC4=O)c3)n2)o1
[14]
  EC50: 3.78 µM (active)

## CCOc1ccc(-c2n[nH]cc2Oc2cccc(OC)c2)c(O)c1
[10]
  IC50: > 20 µM (inactive)

## COC(=O)[C@]12CCCCC=C1N(Cc1cccc3ccccc13)C(=O)[C@H](CC(=O)N1CCN(C(=O)c3ccco3)CC1)C2
Paired box protein Pax-8
  AC50: 1.59 µM (active)

## COc1ccc(N2CCN(Cc3cc4c(cc3O)CCC4)CC2)cc1
[3]
  CC50: > 40 µM (active)

## Cn1c(N)c(C(=O)COC(=O)CCCc2nc3ccccc3s2)c(=O)n(C)c1=O
[2]
  IC50: > 50 µM (not active)

## O=C(O)c1ccc(Nc2c3ccccc3nc3ccccc23)cc1
P388/ADR
  GI50: 22.4 µM (inactive)
SN12K1
  GI50: 60.5 µM (inactive)
P388
  GI50: 3.92 µM (inactive)

## C/C(=N\NC(=O)CC(C)C)c1c(C(F)(F)F)nn(-c2nc3ccccc3s2)c1O
[3]
  CC50: 37.4 µM (active)

## O=P1(N(CCCl)CCCl)NCCCO1 (stereo unspecified) [CYCLOPHOSPHAMIDE ANHYDROUS]
P388/ADR
  GI50: 196 µM (inactive)
SN12K1
  GI50: > 245 µM (inactive)
P388
  GI50: 229 µM (inactive)

## O=C(CCC(=O)N1CCN(S(=O)(=O)c2ccc(Cl)cc2)CC1)Nc1cccc(Br)c1
[2]
  IC50: 24.9 µM (not active)

## CCN(CC)S(=O)(=O)c1ccc(Nc2nc3ccccc3n3nnnc23)cc1
[4]
  EC50: 22.1 µM (active)
[5]
  EC50: 35.3 µM (active)
H9c2
  IC50: > 79 µM (inactive)

## O=C(CSc1nc(N2CCCCC2)nc(N2CCCCC2)n1)N1CCN(c2ccccc2)CC1
[14]
  EC50: 5.36 µM (active)

## COc1ccc(C)cc1Nc1nc(N)c2cc(OC)c(OC)cc2n1
[15]
  AC50: 14.2 µM (active)

## Cc1ccc(-c2cc(C(F)F)n3ncc(C(=O)Nc4c(C)nn(Cc5ccccc5Cl)c4C)c3n2)cc1
[4]
  EC50: 8.84 µM (active)
[5]
  EC50: 8.23 µM (active)

## C[C@H](CO)N1C[C@H](C)[C@H](CN(C)C(=O)[C@H](C)c2ccccc2)OCc2ccccc2-c2c(n(C)c3ccccc23)C1=O
[6]
  AC50: 4.15 µM (active)
[7]
  AC50: 34.4 µM (active)

## CCC(=O)N1c2ccc(C)cc2C2=NN=C(S)NC21O (stereo unspecified)
[10]
  IC50: > 20 µM (inactive)

## Cc1ccc(S(=O)(=O)N(C)C[C@@H]2Oc3ccc(NC(=O)Cc4cn(C)c5ccccc45)cc3CC(=O)N([C@H](C)CO)C[C@@H]2C)cc1
[8]
  AC50: 1.09 µM (active)
[9]
  AC50: 14.5 µM (active)
